Assays:
[1] = test system: ATXN1[82Q] Purkinje neurons; test: Analysis of intrinsic dendritic excitability (dendritic calcium spikes); format: cell-based, mice
[2] = Water solubility (preparation of drinking water); format: physicochemical
Procedure: (§1) SKA-31 was dissolved in drinking water at 600 μM for all studies. […] For vehicle treatment, drinking water containing 0.05% β-(hydroxypropyl)-cyclodextrin, NaOH, and sucrose was used. Water bottles were changed twice weekly. Mice were treated with water bottles beginning at 28 days of age and maintained on water bottles for the duration of the experiment.

[3] = test system: ATXN1[82Q] Purkinje neurons; test: Whole-cell patch-clamp recordings: membrane potential and after-hyperpolarization (AHP); format: cell-based, mice
[4] = both, mouse, in vivo
Procedure: as §1

[5] = test system: SCA patients; conditions: human, in vivo
[6] = test system: non-firing ATXN1[82Q] Purkinje neurons; test: Cell-attached recordings of Purkinje neuron spiking in acute cerebellar slices; format: cell-based, mice; conditions: 5 weeks of age, chlorzoxazone 50 μM, baclofen 10 μM, SKA-31 10 μM, 1-EBIO 100 μM

SMILES | dendritic (hyper)excitability: threshold of injected current to elicit dendritic calcium spikes [1] | water solubility [2] | duration of the AHP ([3]; SKA-31 10 μM, chlorzoxazone 50 μM and baclofen 10 μM) | brain level [4] | plasma level [4] | Other comments: tolerability [5] | effect of baclofen on dendritic excitability in the presence of TEA ([1]; TEA 1 mM, baclofen 2 μM) | effect of baclofen on dendritic excitability in the presence of U73122 ([1]; U73122 10 μM in recording pipette (phospholipase C inhibitor), baclofen 2 μM) | effect of baclofen on dendritic excitability in the presence of barium ([1]; barium 500 μM, baclofen 2 μM) | effect of baclofen on dendritic excitability with cesium in the recording pipette ([1]; cesium chloride 140 mM in the recording pipette, baclofen 2 μM) | restoration of repetitive (tonic) spiking in non-firing Purkinje neurons [6] | membrane potential of depolarized Purkinje neurons after the agent [3]
Nc1nc2c(ccc3ccccc32)s1 [SKA-31, Naphtho[1,2-d]thiazol-2-ylamine] | does not reduce dendritic hyperexcitability | not easily water-soluble | extended the duration of the AHP | 1830 ± 1300 nM | 39.39 ± 8.05 nM |  |  |  |  |  |  | 
NCC(CC(=O)O)c1ccc(Cl)cc1 (stereo not drawn) [baclofen, Baclofen] | reduce dendritic hyperexcitability |  |  | 377.35 ± 58.50 nM | 3060 ± 510 nM | Could not tolerate; | does not block the effect of baclofen | did not prevent the effect of baclofen on dendritic excitability | did not prevent the effect of baclofen | prevents the effect of baclofen | Neither chlorzoxazone alone nor baclofen alone consistently restores spiking | −52 mV

— patent publication US11382897B2, “Therapeutic combination for treatment of cerebellar ataxia” (The Regents of the University of Michigan, priority 2017, dated 2022)
